pIC50: −log10 of the molar value. Where “and” joins values, the source holds several entries; their conditions need not be identical. Identical values can stand only once. Where no end group is shown, it is not given here.

Assay type in all cases: biochemical
The subject of assay [1] is CaMKII. The method, then: CaMKII activity assays. Standard CaMKII assays were done for 1 min at 30° C. previously described, with 20 nM CaMKII (subunit, not holoenzyme concentration), 50 mM PIPES pH 7.2, 0.1 mg/ml BSA, 10 mM MgCl2, 100 μM [γ-^32P] ATP (˜1 Ci/mmol), 1 mM CaCl2, 1-2 μM CaM, and 30-60 μM AC2 peptide (or syntide2). The reactions were spotted onto Whatman P81 phosphocellulose paper rectangles (˜2×2.5 cm). To remove free radioactivity, the paper rectangles were rinsed and washed for 30 min under agitation in 0.5% phosphoric acid or water. […] Radioactivity of the bound peptides was quantified in a Beckman 6000TA scintillation counter by the Cherenkov method. Any changes of the standard protocol were done as indicated. For assays of the GFP-CaMKIIα mutants, kinase amounts were normalized by GFP fluorescence in the extract, and total protein was adjusted with Cos-7 extracts.

Assay [2] concerns the target CaMKIV (Homo sapiens, UniProt Q16566). Kind of assay: Kinase panel: CaMKIV. The following applies: 5 μM.
Method: (§2) Kinase panels. A panel of different kinases was tested utilizing a kinase profiling service (Upstate Biotechnology).
Assay [3] deals with PKC (Homo sapiens, UniProt P17252). Put plainly: Kinase panel: PKC. Particulars: 5 μM.
Method: as §2
The target of assay [4] is CaMKI (Homo sapiens, UniProt Q14012). Kind of assay: CaMKI activity / inhibition. From the text:
For curve fit, the Hill coefficient was set as 1.

For assay [5], the target named is protein kinase A (PKA) (Homo sapiens, UniProt P17612). Kind of assay: Kinase panel for CN19o: PKA. The following applies: 5 μM. The method, then: (§1) Additionally, CN19o was tested for effects on a panel of other kinases (see for example FIG. 25B). This panel included other CaM kinase family members (CaMKIV, DAPK1, AMPK) and other basophilic multifunctional kinases (protein kinase A (PKA) and protein kinase C (PKC)). […] Thus, CN19o (SEQ ID NO: 24) inhibits CaMKII both with remarkable potency and high selectivity.

The target in assay [6] is DAPK1 (Homo sapiens, UniProt P53355). Kind of assay: Kinase panel for CN19o: DAPK1. The following applies: 5 μM. The method, then: as §1
DAPK1, sequence (P53355 whole entry, species assumed): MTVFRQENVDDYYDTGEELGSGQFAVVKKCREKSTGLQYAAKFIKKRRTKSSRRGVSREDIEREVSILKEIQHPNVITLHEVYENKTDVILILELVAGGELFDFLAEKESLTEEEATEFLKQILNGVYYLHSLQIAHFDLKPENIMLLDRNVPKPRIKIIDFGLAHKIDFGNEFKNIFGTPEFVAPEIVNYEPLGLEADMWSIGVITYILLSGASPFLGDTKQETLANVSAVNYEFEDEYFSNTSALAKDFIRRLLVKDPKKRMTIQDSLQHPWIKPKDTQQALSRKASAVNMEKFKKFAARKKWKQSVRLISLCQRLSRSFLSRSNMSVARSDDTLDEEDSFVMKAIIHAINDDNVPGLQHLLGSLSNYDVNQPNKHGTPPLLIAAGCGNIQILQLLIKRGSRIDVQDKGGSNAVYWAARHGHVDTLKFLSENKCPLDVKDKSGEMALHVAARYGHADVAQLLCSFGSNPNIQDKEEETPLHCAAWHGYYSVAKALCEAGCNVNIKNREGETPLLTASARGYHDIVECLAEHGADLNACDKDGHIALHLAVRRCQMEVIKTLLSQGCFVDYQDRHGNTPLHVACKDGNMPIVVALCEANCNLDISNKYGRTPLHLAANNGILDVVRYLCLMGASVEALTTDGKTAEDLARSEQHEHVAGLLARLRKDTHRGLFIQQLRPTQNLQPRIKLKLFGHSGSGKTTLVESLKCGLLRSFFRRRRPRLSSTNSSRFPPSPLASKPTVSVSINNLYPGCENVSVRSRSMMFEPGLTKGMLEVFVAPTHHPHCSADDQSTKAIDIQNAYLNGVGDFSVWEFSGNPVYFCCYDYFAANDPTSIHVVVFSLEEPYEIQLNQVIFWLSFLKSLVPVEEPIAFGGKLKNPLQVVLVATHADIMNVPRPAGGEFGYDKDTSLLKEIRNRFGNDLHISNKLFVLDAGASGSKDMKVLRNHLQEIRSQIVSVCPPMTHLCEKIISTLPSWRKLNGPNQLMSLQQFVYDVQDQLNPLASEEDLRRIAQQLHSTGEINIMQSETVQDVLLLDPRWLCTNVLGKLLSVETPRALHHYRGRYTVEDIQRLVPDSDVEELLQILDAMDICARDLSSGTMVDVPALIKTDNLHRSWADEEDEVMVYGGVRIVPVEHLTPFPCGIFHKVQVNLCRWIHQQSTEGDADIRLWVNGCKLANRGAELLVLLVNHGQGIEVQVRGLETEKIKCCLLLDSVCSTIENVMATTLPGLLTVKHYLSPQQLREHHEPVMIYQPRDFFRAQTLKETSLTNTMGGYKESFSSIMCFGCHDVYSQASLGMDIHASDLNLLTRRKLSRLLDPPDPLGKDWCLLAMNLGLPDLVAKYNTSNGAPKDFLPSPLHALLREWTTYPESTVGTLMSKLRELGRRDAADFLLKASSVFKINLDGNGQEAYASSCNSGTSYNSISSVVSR
For assay [7], the system named is AMPK. Kind of assay: Kinase panel for CN19o: AMPK. Particulars: 5 μM. The method, then: as §1

CaMKI, sequence (Q14012 whole entry, species assumed): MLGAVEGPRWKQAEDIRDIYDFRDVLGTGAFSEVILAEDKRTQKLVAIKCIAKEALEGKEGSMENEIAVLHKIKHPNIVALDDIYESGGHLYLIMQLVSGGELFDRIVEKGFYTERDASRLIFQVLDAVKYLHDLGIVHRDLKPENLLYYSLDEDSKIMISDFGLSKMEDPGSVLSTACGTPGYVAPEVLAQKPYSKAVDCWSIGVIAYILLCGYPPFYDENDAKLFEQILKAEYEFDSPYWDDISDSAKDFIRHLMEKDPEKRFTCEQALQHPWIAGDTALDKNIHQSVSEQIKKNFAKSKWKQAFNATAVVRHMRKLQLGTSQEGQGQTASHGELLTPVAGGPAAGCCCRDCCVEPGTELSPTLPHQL

For KRAPKLGQIGRQKAVDIED [CN19o], the “effect on CaMKII activity” value in assay [1] (5 nM) is given as “blocked CaMKII activity nearly completely”. Besides, in assay [1] (CN19a2v background), the “effect of further mutation on potency of CaMKII inhibition” value was “increased potency even further”. The pIC50 in assay [1] (CaMKII concentration lowered to 0.1 nM, read-out: IC50 of CaMKII inhibition) is ~9.12 and 9.12 and > 9.00; in assay [4], approximately 4.42. Besides, the “effect on kinase activity of CaMKIV” value in assay [2] is “did not significantly affect”. Further, the “effect on kinase activity of PKC” value in assay [3] is on record as “did not significantly affect”. In addition, the “effect on kinase activity of CaMKI” value in assay [4] (5 μM) was “did not significantly affect”. The “selectivity for CaMKII vs CaMKI” value in assay [4] (ratio of IC50 values) is “about 50,000 fold”. Moreover, in assay [5], the “effect on kinase activity of PKA” value is listed as “did not significantly affect”. In addition, in assay [6], the “effect on kinase activity of DAPK1” value is given as “did not significantly affect”. The “effect on kinase activity of AMPK” value in assay [7] is “did not significantly affect”.

For orientation: pIC50 means the IC50 on a negative log10 scale, so that one unit is a factor of ten.

Values taken from patent publication US10300107B2, “Compositions and methods for CaMKII inhibitors and uses thereof” (THE REGENTS OF THE UNIVERSITY OF COLORADO, priority 2007, dated 2019).
